Source: EP4775208A1, “USE OF PRMT5 INHIBITOR IN TREATMENT OF TUMORS OR CANCERS” (Apeiron Therapeutics (Hong Kong) Ltd., priority 2023, dated 2025)
Several values for one entry are separate records, joined by “and”; a condition that tells them apart may be missing. Equal values may be shown once. Read-outs that look alike come from different tables or passages of the source.

Assay: Mouse brain penetration pharmacokinetics study (plasma and brain)
Type: in vivo, ICR male mice
Protocol: IV. Mouse Brain Penetration Pharmacokinetics Study
The test compounds used in this study were the compounds described in the specific examples of the present disclosure.
ICR male mice, N=3/group; sourced from Zhejiang Vital River Laboratory Animal Technology Co., Ltd.
3. Drug Preparation and Administration
Single oral (PO) administration to ICR mice: Compounds were dissolved in dimethyl sulfoxide, added to polyethylene glycol 400 and sterile water, and then adjusted to a clear solution with a small amount of 1 mol/L hydrochloric acid. After overnight fasting, the mice were orally gavaged with a dose of 30 mg/kg or 100 mg/kg.
Blood Collection and Processing: Mice were anesthetized with 5% isoflurane for 3-4 minutes until loss of consciousness. Whole blood (500 µL per time point) was collected via cardiac puncture using dipotassium EDTA (K2EDTA) as the anticoagulant. Plasma was separated by centrifugation ([…] for 5 minutes at 4°C). […] The samples were stored at -80°C.
Brain Tissue Collection: Following complete exsanguination, the thoracic cavity was opened with scissors. The right atrium was incised, and a needle was inserted into the left ventricle. Transcardial perfusion was performed with physiological saline (approximately 10 mL). Upon completion of perfusion, the skull was opened, and brain tissues were harvested and stored at -80°C.
Sample Preparation: A 30 µL plasma aliquot (consisting of 10 µL study sample and 20 µL blank plasma) was mixed with 200 µL of ice-cold acetonitrile containing an internal standard (IS). The mixture was vortexed for 30 seconds and then centrifuged at 4,000 g/min for 20 minutes. A 100 µL aliquot of the supernatant was transferred to a 96-well plate and mixed with 200 µL of ultrapure water. After vortexing for 30 seconds, a volume of 5 µL or 10 µL was injected into the LC-MS/MS system for analysis.
Brain Homogenate Preparation: Brain tissue samples were weighed and homogenized in phosphate-buffered saline (PBS) at a 1:4 ratio (tissue weight [g] to PBS volume [mL]). A 30 µL aliquot of brain homogenate (consisting of 10 µL study sample and 20 µL blank brain homogenate) was mixed with 200 µL of ice-cold acetonitrile containing an internal standard. The mixture was vortexed for 30 seconds and centrifuged at 4,000 g/min for 20 minutes. A 100 µL aliquot of the supernatant was transferred to a 96-well plate and mixed with 200 µL of ultrapure water. After vortexing for 30 seconds, a volume of 2 µL or 10 µL was injected into the LC-MS/MS system for analysis. Table 9: PK data

[1] = ICR male mice, PO(30mg/kg), sampling time 4 h, individual animals, 30 mg/kg
[2] = ICR male mice, PO(30mg/kg), sampling time 8 h, individual animals, 30 mg/kg
[3] = ICR male mice, PO(30mg/kg), sampling time 12 h, individual animals, 30 mg/kg
[4] = ICR male mice, PO(30mg/kg), sampling time 24 h, individual animals, 30 mg/kg
[5] = ICR male mice, PO(30mg/kg), sampling time 36 h, individual animals, 30 mg/kg
[6] = ICR male mice, PO(100mg/kg), sampling time 2 h, individual animals, 100 mg/kg
[7] = ICR male mice, PO(100mg/kg), sampling time 4 h, individual animals, 100 mg/kg
[8] = ICR male mice, PO(100mg/kg), sampling time 8 h, individual animals, 100 mg/kg
[9] = ICR male mice, PO(100mg/kg), sampling time 24 h, individual animals, 100 mg/kg

With `CN(C(=O)c1ccc2nc(N)c3cncn3c2c1)[C@@H]1COc2cc(C(F)(F)F)ccc21` [Example 107, (S)-4-amino-N-methy 1-N-(6-(trifluoromethy 1)-2,3-dihydrobenzofuran-3-yl)imidazo[1,5-a]quinoxaline-8-carboxamide] the B/P ratio [1] was 0.122 and 0.152, the Brain concentration [1] was 885 ng/g and 1290 ng/g and 1780 ng/g and the Plasma concentration [1] was 10.6 µg/mL and 11.7 µg/mL. For the same compound, the B/P ratio [2] was 0.227 and 0.305, the Brain concentration [2] was 1700 ng/g and 2080 ng/g and the Plasma concentration [2] was 7.5 µg/mL and 6.81 µg/mL. The B/P ratio [3] was 0.435 and 0.320, the Brain concentration [3] was 1040 ng/g and 855 ng/g and the Plasma concentration [3] was 2.39 µg/mL and 2.67 µg/mL. For the same compound, the B/P ratio [4] was 0.186 and 0.225, the Brain concentration [4] was 47.6 ng/g and 65.0 ng/g and 142 ng/g and the Plasma concentration [4] was 0.201 µg/mL and 0.349 µg/mL and 0.631 µg/mL. The B/P ratio [5] was 0.653 and 0.705, the Brain concentration [5] was 25.0 ng/g and 19.1 ng/g and the Plasma concentration [5] was 0.0383 µg/mL and 0.0271 µg/mL. The B/P ratio [6] was 0.114 and 0.195, the Brain concentration [6] was 6650 ng/g and 4740 ng/g and 10800 ng/g and the Plasma concentration [6] was 41.5 µg/mL and 55.4 µg/mL. The B/P ratio [7] was 0.143 and 0.168, the Brain concentration [7] was 4560 ng/g and 6100 ng/g and the Plasma concentration [7] was 32 µg/mL and 36.4 µg/mL. For the same compound, the B/P ratio [8] was 0.151 and 0.142, the Brain concentration [8] was 1455 ng/g and 2480 ng/g and the Plasma concentration [8] was 9.62 µg/mL and 17.5 µg/mL. The B/P ratio [9] was 0.278 and 0.222, the Brain concentration [9] was 356 ng/g and 434 ng/g and the Plasma concentration [9] was 1.28 µg/mL and 1.95 µg/mL. It also gave a Kp at 4 h (male, ICR, mouse, brain and plasma, po, 30 mg/kg, ICR male mice, PO(30mg/kg), sampling time 4 h, individual animals, read-out: B/P ratio) of 0.118, a Kp at 8 h (male, ICR, mouse, brain and plasma, po, 30 mg/kg, ICR male mice, PO(30mg/kg), sampling time 8 h, individual animals, read-out: B/P ratio) of 0.286 and a Kp at 12 h (male, ICR, mouse, brain and plasma, po, 30 mg/kg, ICR male mice, PO(30mg/kg), sampling time 12 h, individual animals, read-out: B/P ratio) of 0.365. The Kp at 24 h (male, ICR, mouse, brain and plasma, po, 30 mg/kg, ICR male mice, PO(30mg/kg), sampling time 24 h, individual animals, read-out: B/P ratio) was 0.237, the Kp at 36 h (male, ICR, mouse, brain and plasma, po, 30 mg/kg, ICR male mice, PO(30mg/kg), sampling time 36 h, individual animals, read-out: B/P ratio) was 0.605 and the Kp at 2 h (male, ICR, mouse, brain and plasma, po, 100 mg/kg, ICR male mice, PO(100mg/kg), sampling time 2 h, individual animals, read-out: B/P ratio) was 0.171. For the same compound, the Kp at 4 h (male, ICR, mouse, brain and plasma, po, 100 mg/kg, ICR male mice, PO(100mg/kg), sampling time 4 h, individual animals, read-out: B/P ratio) was 0.168, the Kp at 8 h (male, ICR, mouse, brain and plasma, po, 100 mg/kg, ICR male mice, PO(100mg/kg), sampling time 8 h, individual animals, read-out: B/P ratio) was 0.2 and the Kp at 24 h (male, ICR, mouse, brain and plasma, po, 100 mg/kg, ICR male mice, PO(100mg/kg), sampling time 24 h, individual animals, read-out: B/P ratio) was 0.321. The concentration at 8 h (male, ICR, mouse, brain, po, 30 mg/kg, ICR male mice, PO(30mg/kg), sampling time 8 h, individual animals, read-out: Brain concentration) was 1820 ng/g, the concentration at 12 h (male, ICR, mouse, brain, po, 30 mg/kg, ICR male mice, PO(30mg/kg), sampling time 12 h, individual animals, read-out: Brain concentration) was 1000 ng/g and the concentration at 36 h (male, ICR, mouse, brain, po, 30 mg/kg, ICR male mice, PO(30mg/kg), sampling time 36 h, individual animals, read-out: Brain concentration) was 30 ng/g. For the same compound, the concentration at 4 h (male, ICR, mouse, brain, po, 100 mg/kg, ICR male mice, PO(100mg/kg), sampling time 4 h, individual animals, read-out: Brain concentration) was 5550 ng/g, the concentration at 8 h (male, ICR, mouse, brain, po, 100 mg/kg, ICR male mice, PO(100mg/kg), sampling time 8 h, individual animals, read-out: Brain concentration) was 2460 ng/g and the concentration at 24 h (male, ICR, mouse, brain, po, 100 mg/kg, ICR male mice, PO(100mg/kg), sampling time 24 h, individual animals, read-out: Brain concentration) was 427 ng/g. It also gave a concentration at 4 h (male, ICR, mouse, plasma, po, 30 mg/kg, ICR male mice, PO(30mg/kg), sampling time 4 h, individual animals, read-out: Plasma concentration) of 7.52 µg/mL, a concentration at 8 h (male, ICR, mouse, plasma, po, 30 mg/kg, ICR male mice, PO(30mg/kg), sampling time 8 h, individual animals, read-out: Plasma concentration) of 6.37 µg/mL and a concentration at 12 h (male, ICR, mouse, plasma, po, 30 mg/kg, ICR male mice, PO(30mg/kg), sampling time 12 h, individual animals, read-out: Plasma concentration) of 2.75 µg/mL. For the same compound, the concentration at 36 h (male, ICR, mouse, plasma, po, 30 mg/kg, ICR male mice, PO(30mg/kg), sampling time 36 h, individual animals, read-out: Plasma concentration) was 0.0496 µg/mL, the concentration at 2 h (male, ICR, mouse, plasma, po, 100 mg/kg, ICR male mice, PO(100mg/kg), sampling time 2 h, individual animals) was 38.8 µg/mL and the concentration at 4 h (male, ICR, mouse, plasma, po, 100 mg/kg, ICR male mice, PO(100mg/kg), sampling time 4 h, individual animals, read-out: Plasma concentration) was 33.1 µg/mL. For the same compound, the concentration at 8 h (male, ICR, mouse, plasma, po, 100 mg/kg, ICR male mice, PO(100mg/kg), sampling time 8 h, individual animals, read-out: Plasma concentration) was 12.3 µg/mL, the concentration at 24 h (male, ICR, mouse, plasma, po, 100 mg/kg, ICR male mice, PO(100mg/kg), sampling time 24 h, individual animals, read-out: Plasma concentration) was 1.33 µg/mL and the brain penetration (rodents (ICR mice), oral 30 mg/kg or 100 mg/kg, result in words) was “favorable brain penetration”.
